Values joined by “and” are separate entries in the source; they are usually repeats but may differ in a detail not shown here. Equal entries are not always repeated.
Columns and labels:
[1] = test system: human erythroid progenitors (CFU-E, BFU-E); assay: Erythroid CFU assay; type: cell-based; conditions: for activity at 10 µM: Bone marrow cell, 336 h, 14 days culture, human bone marrow cells, read-out: Erythroid % control @ 10 uM dose
Description: (§1) Compounds were tested to evaluate the potential effects on human erythroid and myeloid progenitors using colony forming cell assays. Clonogenic progenitors of human erythroid (CFU-E, BFU-E), granulocyte-monocyte (CFU-GM) and multipotential (CFU-GEMM) lineages were assessed in a semi-solid methylcellulose-based media formulation containing rhIL-3 (10 ng/mL), rhGM-SCF (10 ng/mL), rhSCF (50 ng/mL) and Epo (3 U/mL).
(§2) Normal human bone marrow light density cells derived from normal bone marrow (NorCal Biologics, California), were stored in the gaseous phase of liquid nitrogen (−152° C.) until required for the assay. On the day of the experiment, the cells were thawed rapidly, the contents of each vial was diluted in 10 mL of Iscove's modified Dulbecco's medium containing 10% fetal bovine serum (IMDM+10% FBS) and washed by centrifugation (approximately 1200 r.p.m. for 10 minutes, room temperature). The supernatant was discarded and the cell pellets resuspended in a known volume of IMDM+10% FBS. A cell count (3% glacial acetic acid) and viability assessment (trypan blue exclusion test) was performed for the bone marrow sample.
(§3) On the day of the experiment, the compounds were dissolved in DMSO to a stock concentration of 10 mM. Serial dilutions were prepared from the stock concentration to achieve concentrations of 2 and 0.4 mM. When added to the methylcellulose-based media at 1:1000 (v/v), the final test concentrations of 10, 2 and 0.4 μM were achieved. Additionally, 5-FU was evaluated at 1.0, 0.1 and 0.01 μg/mL.
(§4) Clonogenic progenitors of the human erythroid (CFU-E and BFU-E) and myeloid (CFU-GM) lineages were set up in the methylcellulose-based media formulations described above. All compounds were added to the medium to give the final desired concentrations (10, 2 and 0.4 μM). 5-Fluorouracil (Sigma Aldrich) was used as a positive control for progenitor proliferation (inhibition of colony growth) and was introduced to the human bone marrow cultures at 1.0, 0.1, and 0.01 μg/mL. Solvent control cultures (containing no compound but 0.1% DMSO) as well as standard controls (containing no compound and no DMSO) were also initiated.
(§5) Human myeloid and erythroid progenitor assays were initiated at 2.0×10^4 cells per culture. Following 14 days in culture, myeloid and erythroid colonies were assessed microscopically and scored by trained personnel. The colonies were divided into the following categories based on size and morphology: CFU-E, BFU-E, CFU-GM and CFU-GEMM.
(§6) The mean±one standard deviation of three replicate cultures was calculated for progenitors of each category (CFU-E, BFU-E, etc.). Two-tailed t-tests were performed to assess if there was a difference in the number of colonies generated between solvent control and treated cultures. Due to the potential subjectivity of colony enumeration, a p value of less than 0.01 is deemed significant. To calculate the concentration of 50% inhibition of colony growth (IC50) for each compound, a dose response curve was generated plotting the log of the compound concentration versus the percentage of control colony growth using XLfit software (IDBS). The concentration of 50% inhibition of colony growth (IC50) was calculated based on the sigmoid curve fit using Dose-Response, One-Site Model formula: y=A+[(B−A)/(1+((C/x)^D))], where A=the initial value (baseline response), B=maximum response, C=center (drug concentration that provokes a response halfway between A and B) and D=slope of the curve at midpoint. Further, plots and additional dose response curves were generated using GraphPad Prism 7.0.
(§7) Erythroid (CFU-E and BFU-E), myeloid (CFU-GM) and multi-potential (CFU-GEMM) colony enumeration was performed by trained personnel. The distribution of colony types as well as general colony and cellular morphology was analyzed. For statistical analysis colony numbers in compound treated cultures were compared to the solvent control cultures. […]

[2] = Brain and plasma exposure following IV and PO administration to mice; type: in vivo; conditions: for Brain Cmax @ 10 mpk / Projected free brain @ 10 mpk: 10 mg/kg PO; for brain Cmax exposure, fold higher than comparator 1 / projected free brain concentration, fold higher than comparator 1: comparator 1 data scaled for comparison
Description: Compounds were dosed in mice at either 10 mg/kg or 30 mg/kg PO, and were dosed at 1 mg/kg IV. Three animals for collection at each time point for plasma via bleeding at 0.25, 0.5, 1, 4, 12 and 24 h. Terminal bleeding for plasma and sampling for brain at 0.25, 0.5, 1, 4, 12 and 24 h (also three animals per brain exposure time point group). Total of six time points for plasma and six time points for brain.
Plasma: The animal was restrained manually at the designated time points, approximately 150 μL blood/time point was collected into K2EDTA tube via retro orbital puncture or cardiac puncture under anesthesia with Isoflurane. The blood sample was centrifuged (2000 g, 4° C., 5 min) to generate plasma within 30 min after bleeding.
Brain: At the designated time points, a mid-line incision was made in the animals scalp and the skin was retracted. Using small bone cutters and rongeurs, removed the skull overlying the brain. Removed the brain using a spatula and rinse with cold saline. Placed the brain in screw-top tubes, and then stored the tubes under −70° C. until analysis.

[3] = test system: human myeloid progenitors (CFU-GM); assay: Myeloid CFU assay; type: cell-based; conditions: 336 h, 14 days culture, human bone marrow cells, read-out: Myeloid % control @ 10 uM dose
Description: as §1, §2, §3, §4, §5, §6, §7

SMILES	Brain Cmax @ 10 mpk [2]	activity at 10 µM [1] [%]	activity at 10 µM [3] [%]	also measured
Cc1ncc(-c2ccc(N)c(NC(=O)N3Cc4cn(C)nc4C3)n2)s1 [Compound 4]	324 ng/g	53	96	
COCc1cc2c(cn1)CN(C(=O)Nc1nc(-c3ccc(F)cc3)ccc1N)C2 [Comparator 5, reference compound]		22.9	58.9	
Cc1cc2c(cn1)CN(C(=O)Nc1nc(-c3ccc(F)cc3)ccc1N)C2 [Comparator 3, reference compound]		25.7	66.1	
Nc1ccc(-c2ccc(F)cc2)nc1NC(=O)N1Cc2cncnc2C1 [Comparator 1, reference compound]		47.1	83.9	Brain Cmax @ 10 mpk (*scaled for comparison) ([2]; dosed 30 mg/kg PO, scaled to 10 mg/kg PO): 158* ng/g
COCCn1cc2c(n1)CN(C(=O)Nc1nc(-c3ccc(F)cc3)ccc1N)C2 [Comparator 6, reference compound]		28	39	
O=c1[nH]cc(F)c(=O)[nH]1 [Compound 5-FU, 5-Fluorouracil, reference compound]				inhibitory effects on colony growth (positive control for toxicity) ([1]; 1.0, 0.1 and 0.01 μg/mL, erythroid and myeloid assays): exactly as expected
Cc1ncc(-c2ccc(N)c(NC(=O)N3Cc4cn(CC(F)F)nc4C3)n2)s1 [Compound 5]	277 ng/g			
COCCn1cc2c(n1)CN(C(=O)Nc1nc(-c3ccc(F)cc3F)ccc1N)C2 [Compound 9]	1533 ng/g and 1383 ng/g	40.4	62.8	
Cn1cc2c(n1)CN(C(=O)Nc1nc(-c3ccc(F)cc3)ccc1N)C2 [Comparator 2, reference compound]		15.7	30.4	

The next lines start with results.

Brain Cmax @ 10 mpk [2]	SMILES	activity at 10 µM [1] [%]	activity at 10 µM [3] [%]	also measured
633 ng/g	Cc1ncc2c(n1)CN(C(=O)Nc1nc(-c3ccc(F)cc3)ccc1N)C2 [Compound 14]	53	112	brain Cmax exposure, fold higher than comparator 1 [2]: 4 fold; projected free brain concentration, fold higher than comparator 1 [2]: 4 fold
1241 ng/g	CCc1ncc2c(n1)CN(C(=O)Nc1nc(-c3ccc(F)cc3)ccc1N)C2 [Compound 17]	59.6	79.1	brain Cmax exposure, fold higher than comparator 1 [2]: ~7 fold; projected free brain concentration, fold higher than comparator 1 [2]: 5 fold
369 ng/g	Cn1cc2c(n1)CN(C(=O)Nc1nc(-c3cccnc3)ccc1N)C2 [Compound 11]	94	103	Projected free brain @ 10 mpk [2]: 0.664 µM
636 ng/g	Nc1ccc(-c2ccc(F)cc2)nc1NC(=O)N1Cc2cn(C3COC3)nc2C1 [Compound 1]	37	54	
102 ng/g	Cc1nc2c(n1C)CN(C(=O)Nc1nc(-c3ccc(F)cc3)ccc1N)C2 [Compound 7]			
526 ng/g	CCc1ncc2c(n1)CN(C(=O)Nc1nc(-c3cccs3)ccc1N)C2 [Compound 3]	46.6	89.4	
100 ng/g	Nc1ccc(-c2cccs2)nc1NC(=O)N1Cc2cncnc2C1 [Comparator 6, reference compound]			Projected free brain @ 10 mpk [2]: 0.103 µM
279 ng/g	CCc1cc2c(cn1)CN(C(=O)Nc1nc(-c3cccnc3)ccc1N)C2 [Compound 8]	98	102	
237 ng/g	Cc1cc2c(cn1)CN(C(=O)Nc1nc(-c3cccnc3)ccc1N)C2 [Compound 12]	93	104	
760 ng/g	Cc1ncc2c(n1)CN(C(=O)Nc1nc(-c3ccc(F)s3)ccc1N)C2 [Compound 2]	40	87	
